Assay: xn = mol fraction of the nth substance listed
Details: 101 kPa, Liquid, Vibrating tube method

CCOS(=O)(=O)[O-].CCn1cc[n+](C)c1 [1-ethyl-3-methylimidazolium ethyl sulfate] + CCO
mass density [kg/m3]
Details	293.15 K	298.15 K	303.15 K	308.15 K	313.15 K	318.15 K
x1 = 0.0157	813.7	809.5	805.3	801	796.7	792.3
x1 = 0.05	860	855.9	851.8	847.7	843.5	839.2
x1 = 0.0523	862.6	858.5	854.4	850.3	846.1	841.9
x1 = 0.0978	913.4	909.4	905.3	901.3	897.3	893.2
x1 = 0.0991	914.6	910.6	906.6	902.6	898.5	894.4
x1 = 0.1944	996	992.1	988.3	984.4	980.6	976.6
x1 = 0.3073	1063.7	1060	1056.3	1052.6	1048.8	1045.1
x1 = 0.4109	1109.6	1105.9	1102.3	1098.7	1095	1091.4
x1 = 0.5084	1143.2	1139.6	1136	1132.5	1128.9	1125.3
x1 = 0.5927	1167	1163.4	1159.9	1156.4	1152.9	1149.3
x1 = 0.6995	1191.8	1188.3	1184.8	1181.4	1177.9	1174.4
x1 = 0.7883	1208.9	1205.4	1202	1198.5	1195.1	1191.7
x1 = 0.8797	1223.9	1220.5	1217.1	1213.7	1210.2	1206.9
x1 = 0.9388	1232.5	1229.1	1225.7	1222.3	1218.9	–
